The text below walks through data of ChEMBL document CHEMBL1131923, “Synthesis and structure-activity relationships of a series of novel thiazoles as inhibitors of aminoacyl-tRNA synthetases” (Bioorg Med Chem Lett, 1999).

For assay [1], the target named is T1, Isoleucine--tRNA ligase, cytoplasmic (Homo sapiens, UniProt P41252).
T1 sequence (P41252 whole entry): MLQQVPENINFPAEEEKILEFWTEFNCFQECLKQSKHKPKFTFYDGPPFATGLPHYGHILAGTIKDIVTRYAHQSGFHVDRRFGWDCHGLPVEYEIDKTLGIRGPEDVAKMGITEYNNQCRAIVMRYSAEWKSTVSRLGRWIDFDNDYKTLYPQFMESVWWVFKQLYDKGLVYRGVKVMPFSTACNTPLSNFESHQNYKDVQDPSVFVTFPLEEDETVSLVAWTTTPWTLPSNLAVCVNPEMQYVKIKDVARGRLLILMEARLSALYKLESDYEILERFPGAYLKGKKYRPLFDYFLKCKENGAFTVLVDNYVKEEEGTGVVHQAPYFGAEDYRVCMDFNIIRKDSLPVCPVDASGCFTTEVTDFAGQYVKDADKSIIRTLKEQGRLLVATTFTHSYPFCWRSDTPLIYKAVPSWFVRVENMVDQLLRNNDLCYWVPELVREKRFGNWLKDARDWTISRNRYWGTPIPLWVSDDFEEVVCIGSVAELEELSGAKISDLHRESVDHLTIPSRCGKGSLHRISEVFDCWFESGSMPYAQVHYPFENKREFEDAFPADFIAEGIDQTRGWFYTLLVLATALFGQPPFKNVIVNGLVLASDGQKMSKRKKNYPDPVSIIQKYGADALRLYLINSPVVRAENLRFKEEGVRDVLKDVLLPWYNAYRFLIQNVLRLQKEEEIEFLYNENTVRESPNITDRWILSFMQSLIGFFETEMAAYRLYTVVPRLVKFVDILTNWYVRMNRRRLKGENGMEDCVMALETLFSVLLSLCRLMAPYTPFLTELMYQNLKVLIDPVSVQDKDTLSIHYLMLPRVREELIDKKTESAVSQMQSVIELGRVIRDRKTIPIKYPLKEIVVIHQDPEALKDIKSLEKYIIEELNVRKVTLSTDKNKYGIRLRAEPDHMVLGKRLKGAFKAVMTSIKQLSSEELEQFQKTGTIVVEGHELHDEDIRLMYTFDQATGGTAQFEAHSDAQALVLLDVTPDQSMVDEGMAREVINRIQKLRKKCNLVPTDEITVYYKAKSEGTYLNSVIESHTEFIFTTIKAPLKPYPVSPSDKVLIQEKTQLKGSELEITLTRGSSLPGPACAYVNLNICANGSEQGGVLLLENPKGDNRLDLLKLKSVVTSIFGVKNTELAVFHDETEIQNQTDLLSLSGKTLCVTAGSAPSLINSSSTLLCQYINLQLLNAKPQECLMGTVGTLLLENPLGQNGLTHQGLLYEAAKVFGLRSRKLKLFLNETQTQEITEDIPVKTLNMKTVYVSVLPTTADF
The assay can be described thus: Compound tested for the inhibition of human isoleucyl-tRNA synthetase.

A short description of assay [2]: Selectivity ratio of human to that of Escherichia coli was determined for isoleucyl-tRNA synthetase.
Assay [3] has as its target T2, Isoleucine--tRNA ligase (Staphylococcus aureus, UniProt P41972).
T2 sequence (P41972 whole entry): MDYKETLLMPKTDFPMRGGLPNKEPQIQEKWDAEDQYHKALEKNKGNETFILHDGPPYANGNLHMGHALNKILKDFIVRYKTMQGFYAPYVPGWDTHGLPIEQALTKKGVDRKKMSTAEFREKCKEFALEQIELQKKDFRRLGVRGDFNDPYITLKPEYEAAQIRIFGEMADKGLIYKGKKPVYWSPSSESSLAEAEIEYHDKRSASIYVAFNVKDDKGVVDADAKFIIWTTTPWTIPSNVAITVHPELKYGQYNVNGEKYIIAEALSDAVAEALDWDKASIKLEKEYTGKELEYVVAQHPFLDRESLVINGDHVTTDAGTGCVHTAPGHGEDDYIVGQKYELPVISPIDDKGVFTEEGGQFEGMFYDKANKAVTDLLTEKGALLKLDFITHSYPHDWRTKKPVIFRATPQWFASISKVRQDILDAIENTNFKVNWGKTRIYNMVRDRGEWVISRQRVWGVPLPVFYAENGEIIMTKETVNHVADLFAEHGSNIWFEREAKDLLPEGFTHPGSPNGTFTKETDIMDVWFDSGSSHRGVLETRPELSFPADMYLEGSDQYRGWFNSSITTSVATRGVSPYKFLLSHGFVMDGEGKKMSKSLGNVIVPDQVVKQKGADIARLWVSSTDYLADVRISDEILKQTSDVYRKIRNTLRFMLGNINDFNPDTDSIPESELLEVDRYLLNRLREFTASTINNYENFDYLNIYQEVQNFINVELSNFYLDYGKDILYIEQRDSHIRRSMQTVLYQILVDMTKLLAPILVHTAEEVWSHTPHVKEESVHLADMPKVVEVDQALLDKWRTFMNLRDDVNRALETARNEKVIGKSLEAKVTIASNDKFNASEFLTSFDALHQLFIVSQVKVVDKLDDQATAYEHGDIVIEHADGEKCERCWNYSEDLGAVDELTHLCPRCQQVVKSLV
The assay can be described thus: Compound tested for the inhibition of Staphylococcus aureus isoleucyl-tRNA synthetase.

Assay [4] has as its target S. aureus MRSA LeuRS (Staphylococcus aureus, UniProt P67513). Briefly: Compound tested for the inhibition of Staphylococcus aureus Leucyl-tRNA synthetase.
Assay [5] has as its target Leucine--tRNA ligase, cytoplasmic (Homo sapiens, UniProt Q9P2J5). The assay can be described thus: Compound tested for the inhibition of human Leucyl-tRNA synthetase.
Assay [6] is described as follows: Selectivity ratio of human to that of Escherichia coli was determined for leucyl-tRNA synthetase.

Sequence of S. aureus MRSA LeuRS (P67513 whole entry, looked up): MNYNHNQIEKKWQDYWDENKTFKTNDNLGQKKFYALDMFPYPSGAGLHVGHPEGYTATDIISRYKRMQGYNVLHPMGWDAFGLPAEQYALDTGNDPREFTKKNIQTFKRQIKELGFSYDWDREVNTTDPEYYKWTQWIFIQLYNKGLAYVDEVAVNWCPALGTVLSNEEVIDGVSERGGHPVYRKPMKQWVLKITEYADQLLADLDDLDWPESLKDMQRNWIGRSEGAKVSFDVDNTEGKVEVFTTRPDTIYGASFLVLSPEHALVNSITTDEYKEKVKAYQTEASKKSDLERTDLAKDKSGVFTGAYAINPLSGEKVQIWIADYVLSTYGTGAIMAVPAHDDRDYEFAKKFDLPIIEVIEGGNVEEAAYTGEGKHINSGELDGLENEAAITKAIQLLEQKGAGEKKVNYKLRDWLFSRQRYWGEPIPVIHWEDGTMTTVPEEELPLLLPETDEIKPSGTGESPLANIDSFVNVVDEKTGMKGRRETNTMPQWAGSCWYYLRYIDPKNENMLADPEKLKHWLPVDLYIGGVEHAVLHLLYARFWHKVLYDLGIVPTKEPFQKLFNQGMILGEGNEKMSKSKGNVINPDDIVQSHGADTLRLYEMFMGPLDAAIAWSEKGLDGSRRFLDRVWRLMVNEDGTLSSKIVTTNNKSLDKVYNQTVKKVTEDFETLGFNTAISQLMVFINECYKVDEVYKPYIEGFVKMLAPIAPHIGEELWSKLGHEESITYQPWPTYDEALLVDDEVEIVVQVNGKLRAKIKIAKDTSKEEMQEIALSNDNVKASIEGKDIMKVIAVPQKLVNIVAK
Sequence of Leucine--tRNA ligase, cytoplasmic (Q9P2J5 whole entry): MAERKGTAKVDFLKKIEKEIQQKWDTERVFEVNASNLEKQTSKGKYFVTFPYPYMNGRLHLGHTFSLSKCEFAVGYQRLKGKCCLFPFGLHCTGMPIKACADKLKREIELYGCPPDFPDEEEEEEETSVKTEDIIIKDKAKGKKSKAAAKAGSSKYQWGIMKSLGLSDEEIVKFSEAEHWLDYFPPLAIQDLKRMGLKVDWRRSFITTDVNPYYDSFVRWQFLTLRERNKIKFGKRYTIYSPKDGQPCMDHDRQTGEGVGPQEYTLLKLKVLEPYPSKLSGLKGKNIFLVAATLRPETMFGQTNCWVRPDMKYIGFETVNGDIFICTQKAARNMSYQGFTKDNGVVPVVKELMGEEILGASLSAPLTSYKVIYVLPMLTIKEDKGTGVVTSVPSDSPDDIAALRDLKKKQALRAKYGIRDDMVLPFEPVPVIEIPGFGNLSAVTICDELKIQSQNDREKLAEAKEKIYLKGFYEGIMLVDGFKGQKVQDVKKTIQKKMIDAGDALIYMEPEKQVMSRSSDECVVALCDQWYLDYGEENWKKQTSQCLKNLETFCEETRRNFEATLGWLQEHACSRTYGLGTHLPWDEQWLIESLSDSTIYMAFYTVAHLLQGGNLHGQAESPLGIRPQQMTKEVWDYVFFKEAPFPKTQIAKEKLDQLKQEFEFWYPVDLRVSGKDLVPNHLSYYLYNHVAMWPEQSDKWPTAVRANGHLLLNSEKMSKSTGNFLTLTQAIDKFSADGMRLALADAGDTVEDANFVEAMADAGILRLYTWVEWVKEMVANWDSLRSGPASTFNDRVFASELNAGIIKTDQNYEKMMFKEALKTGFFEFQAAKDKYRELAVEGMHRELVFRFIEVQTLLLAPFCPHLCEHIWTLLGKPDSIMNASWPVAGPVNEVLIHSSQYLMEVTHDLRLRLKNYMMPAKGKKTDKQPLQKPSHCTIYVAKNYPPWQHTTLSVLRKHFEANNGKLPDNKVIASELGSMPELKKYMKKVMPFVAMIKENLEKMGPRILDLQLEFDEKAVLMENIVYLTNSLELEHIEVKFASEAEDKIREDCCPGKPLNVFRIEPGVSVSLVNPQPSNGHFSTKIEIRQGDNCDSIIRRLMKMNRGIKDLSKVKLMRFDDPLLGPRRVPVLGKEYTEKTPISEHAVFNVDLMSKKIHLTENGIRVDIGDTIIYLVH

The term IC50 denotes the midpoint of a concentration-inhibition curve. A high value points to a need for much substance. As to `CCC(C)[C@H](N)C(=O)NS(=O)(=O)OC[C@H]1O[C@@H](c2nc(-c3cc(C#N)co3)cs2)[C@H](O)[C@@H]1O` (stereo not given in full), the values for the IC50 in assay [1] and in assay [3] were 0.12 µM and 0.24 µM, respectively. Further, the Selectivity in assay [2] stood at 1.

As to `CCC(C)[C@H](N)C(=O)NS(=O)(=O)OC[C@H]1O[C@@H](c2nc(-c3ccccc3OC)cs2)[C@H](O)[C@@H]1O` (stereo not given in full), the IC50 in assay [1] is 0.1 µM; in assay [3] it was 0.3 µM. The Selectivity in assay [2] is 3.3.

Take `CCC(C)[C@H](N)C(=O)NS(=O)(=O)OC[C@H]1O[C@@H](c2nc(CCc3ccccc3)cs2)[C@H](O)[C@@H]1O` (stereo not given in full): the concentration for half-maximal inhibition (IC50) in assay [1] came out at 0.3 µM; in assay [3], 0.04 µM. The Selectivity in assay [2] is 10.

Take `CCC(C)[C@H](N)C(=O)NS(=O)(=O)OC[C@H]1O[C@@H](c2nc(-c3ccc(Oc4ccccc4)cc3)cs2)[C@H](O)[C@@H]1O` (stereo not given in full): the figures for the IC50 in assay [1] and in assay [3] were 0.37 µM and 0.27 µM, respectively. The Selectivity in assay [2] stood at 8.2.

In the case of `CC(C)C[C@H](N)C(=O)NS(=O)(=O)OC[C@H]1O[C@@H](c2nc(CCc3ccc(Oc4ccccc4)cc3)cs2)[C@H](O)[C@@H]1O`, the IC50 came out at 0.1 µM in assay [4] and 1.15 µM in assay [5]. Also, in assay [6], the Selectivity came out at 192.

As to `CCC(C)[C@H](N)C(=O)NS(=O)(=O)OC[C@H]1O[C@@H](c2nc(CCc3ccc(Oc4ccccc4)cc3)cs2)[C@H](O)[C@@H]1O` (stereo not given in full), the IC50 in assay [1] amounted to 1.02 µM; in assay [3] it was 0.12 µM. For the same molecule, the Selectivity in assay [2] was found to be 9.3.

In the case of `CCC(C)[C@H](N)C(=O)NS(=O)(=O)OC[C@H]1O[C@@H](c2nc(-c3cccc(OC)c3)cs2)[C@H](O)[C@@H]1O` (stereo not given in full), the IC50 is 0.034 µM in assay [1] and 0.05 µM in assay [3]. For the same molecule, the Selectivity in assay [2] was 2.3.

With `CCC(C)[C@H](N)C(=O)NS(=O)(=O)OC[C@H]1O[C@@H](c2nc(-c3ccc4cc(OC)ccc4c3)cs2)[C@H](O)[C@@H]1O` (stereo not given in full), the IC50 was determined as 0.4 µM in assay [1] and 0.13 µM in assay [3]. In addition, in assay [2], the Selectivity was 4.

For `CCC(C)[C@H](N)C(=O)NS(=O)(=O)OC[C@H]1O[C@@H](c2nc(-c3ccc(OC)cc3)cs2)[C@H](O)[C@@H]1O` (stereo not given in full), the IC50 in assay [1] turned out to be 0.2 µM; in assay [3], 0.1 µM. Further, the Selectivity in assay [2] turned out to be 2.

Regarding `CC[C@H](C)[C@H](N)C(=O)NS(=O)(=O)OC[C@H]1O[C@@H](c2nc(-c3ccccc3)cs2)[C@H](O)[C@@H]1O`, the values for the IC50 in assay [1] and in assay [3] were 0.33 µM and 8 µM, respectively.

Regarding `CC(C)C[C@H](N)C(=O)NS(=O)(=O)OC[C@H]1O[C@@H](c2nc(-c3ccc(Oc4ccccc4)cc3)cs2)[C@H](O)[C@@H]1O`, the figures for the IC50 in assay [4] and in assay [5] were more than 0.054 µM and 0.6 µM, respectively. In addition, in assay [6], the Selectivity amounted to 375.

For the molecule `CC(C)C[C@H](N)C(=O)NS(=O)(=O)OC[C@H]1O[C@@H](c2nc(CCc3ccccc3)cs2)[C@H](O)[C@@H]1O`, the IC50 in assay [4] turned out to be 0.09 µM; in assay [5], 0.73 µM. Further, the Selectivity in assay [6] was more than 365.
